Square brackets hold non-standard residues; d marks the D form. Ends that are not written are not given here. pY = N[C@@H](Cc1ccc(OP(=O)(O)O)cc1)C(=O)O
Tested on: p110β/p85β-nicSH2
Assay: [γ32P]-ATP nitrocellulose-binding assay of PIP3 production
Assay type: biochemical, mouse
Experimental: or absence of 10 μM PDGF bis-phosphopeptide. Reactions were carried out with 1 μCi [γ32P]-ATP per reaction, with 100 μM ATP and 1 mg/ml total “brain lipids” or 1.5 mM diC8-PIP2/POPS vesicles for 60 min. The vesicle compositions are indicated.
(B) Integrated intensities of the spots using the “brain liposomes” (left panel) or diC8-PIP2/POPS liposomes (Invitrogen) (right panel), quantitated with the ImageQuant software.
The bars represent standard deviations of the mean for two measurements. The hatched bars are for reactions in the presence of PDGF bis-phosphopeptide.
(C) SDS PAGE analysis of the proteins used for the assays in (A and B). Samples of 10 μl of […] protein solutions for each of the reaction were analyzed on a 4-12% NuPAGE Novex Bis-Tris gel in MES running buffer (Invitrogen). The upper band is the p110 subunit and the lower band is the regulatory subunit.
(D) Stereo view of the contacts between the p85β-cSH2 domain and the C-lobe of the kinase domain. The Tyr677-p85β (red) inserts into a hydrophobic groove between the two elbows kα7/kα8 (yellow) and kα11/kα12 (orange). Tyr677-p85β also makes a potential hydrogen bond with Ser1046-p110β (dashed black line).
To determine the effect of receptor tyrosine kinases (RTK) on PI3K activity, the assays were performed in absence or presence of 10 μM pY peptides:
7. Mm-PDGFR (pY2): ESDGG(pY)MDMSKDESID(pY)VPMLDMKGDIKYADIE (residues
10. Hs-PDGFR-pY740+5 position 5 mutated to P: DGG(pY)MDMSP
11. Hs-PDGFR-pY740+5 position 5 mutated to A: DGG(pY)MDMSA
12. Hs-PDGFR-pY740+5 position 5 mutated to S: DGG(pY)MDMSS
13. […]
The reactions were stopped by addition of 10 μl of stop/detection buffer (1X Stop & Detect Buffer B, 4 nM ADP Alexa633 Tracer, 109 μg/ml ADP2 antibody), followed by 1 h equilibration. Fluorescence polarization was measured on a PHERAStar plus HTS microplate reader (BMG Labtech), using a fluorescence polarization module with excitation centered at 633 nm and emission at 650 nm. […]
The PIP3 lipids produced in PI3K in vitro assays as described above were also measured by a mass-spectrometry based assay (Clark et al.). […]

ESDGG[pY]MDMSKDESID[pY]VPMLDMKGDIKYADIE [pY2, bis-phosphopeptide (PDGFR 735–767, with pY740 and pY751)]
fold activation by pY2, PIP3 formation, brain lipids (p110β/p85β-nicSH2, 10 μM pY2, 1 mg/ml brain lipids (5% PIP2, 20% PS, 15% PC, 45% PE, 5% sphingomyelin, 10% cholesterol), 100 μM ATP, 60 min): 10 fold
fold activation by pY2, PIP3 formation, diC8-PIP2/POPS liposomes (p110β/p85β-nicSH2, 10 μM pY2, 1.5 mM diC8-PIP2/POPS, 100 μM ATP, 60 min): 16 fold
effect on lipid kinase activity of p110β SH2-containing complexes, PIP3 formation (radioactive phosphorylation assay, Figures S2A–S2C): stimulates lipid kinase activity
